Tests used:
Type in all cases: cell-based, mouse
neural stem cells = experiment: BrdU incorporation assay (mitotic index); conditions: 4 hrs incubation
Protocol: (§1) For the BrdU incorporation assay, the cultures were incubated for 4 hrs in BrdU (Sigma, 10 μg/ml, 4 hrs), fixed and stained with rat monoclonal anti-BrdU (MAS250C, Harlan Sera-lab, Loughborough, UK; 1:200) and Cy3-conjugated goat anti-rat antibodies (Jackson ImmunoResearch, 1:300). Nuclei were visualized by Sytox (Molecular Probes, Inc.), and the mitotic index was calculated as the ratio of BrdU/Sytox positive nuclei. Limiting dilution analysis was performed as previously described (Keyoung et al., Nature Biotechnology 19:843-850 (2001); Uchida et al., Proc. Natl. Acad. Sci. 97:14720-14725 (2000), which are hereby incorporated by reference in their entirety).
Purinergic signaling has long-term effects on proliferation of numerous cell types, including rapidly replicating transformed cell lines (Burnstock, G., Arterioscler Thromb Vasc Biol 22:364-73 (2002); Michoud et al., Am J Respir Cell Mol Biol 27:732-8 (2002); Sauer et al., J Cell Sci 115:3265-73 (2002); Tu et al., Br J Pharmacol 129:1481-9 (2000), which are hereby incorporated by reference in their entirety). To better define the mitogenic effects of P2Y on neural progenitor cells, the mitogenic effects of ATP, its analogs, and its dephosphorylated metabolites were compared. To this end, BrdU incorporation by neural stem cells was quantified after 4 hrs incubation in each treatment.

neurospheres = experiment: Flow cytometry of S-phase fraction and P27 expression; conditions: for P27 expression: suramin 300 μM, RB 40 μM (FIG. 3D); for fraction of cells in S-phase: treated cultures, untreated control 16.4%±1.8%, p<0.001
Protocol: Cultures were stained for nestin (monoclonal clone Rat 401, IgG1, or rabbit antiserum, Chemicon, Temecula, Calif.; 1:2000), neuronal class III β-tubulin (monoclonal clone TuJ1, IgG2a, Covance, Philadelphia, Pa.; 1:500), MAP-2 (2a+2b) (monoclonal clone AP-20, ascites fluid, Sigma, St. Louis, Mo.; 1:500), Neuronal protein HuC/HuD (monoclonal 16A11, Molecular Probes, Eugene, Oreg.; 15 μg/ml), O4 (monoclonal IgM supernatant; O4 hybridoma, or GFAP (mouse clone GA5, or rabbit antiserum, Sigma; 1:500,), purinergic receptors P2Y1, P2Y2, P2Y4 (polyclonal, Alomone Labs, Jerusalem, Israel, 1:200), p27 (polyclonal, Chemicon, 1:2000), cyclins D1 and E (polyclonal, H-295 and M-20, respectively, Santa Cruz Biotechnology, Santa Cruz, Calif.; 1:100), Secondary antibodies were FITC-conjugated goat anti-mouse IgM (μ-chain specific, Sigma; 1:500), Cy3-conjugated goat-anti-rabbit IgG (H+ L) (1:200), Cy5-conjugated Goat-anti-mouse IgG (H+L) (both from Jackson ImmunoResearch, West Grove, Pa.; 1:100). Nuclei were counter-stained with Sytox Green or propidium iodide (Molecular Probes). P27, cyclin D and cyclin E FACS analyses were performed on an EPICS ELITE ESP flow cytometer/cell sorter (Beckman Coulter), as described (Deptala et al., Int J Oncol 15:861-71 (1999), which is hereby incorporated by reference in its entirety). The analysis of ectonucleotidase activity was adapted from Braun et al., “Expression of the Ecto-ATPase NTPDase2 in the Germinal Zones of the Developing and Adult Rat Brain,” Eur. J. Neurosci. 17:1355-64 (2003), which is hereby incorporated by reference in its entirety. Cryostat sections from paraformaldehyde-perfused animals were utilized. All experiments used either inosine diphosphate (IDP), adenosine diphosphate (ADP), or adenosine triphosphate (ATP) as substrate (1 mM), whereas substrate was omitted from controls.
The inhibition of proliferation afforded by suramin and RB was reversible. The percentage of cells in S-phase recovered by 50% at 8 h and by 80% at 24 hr after wash-out of the drugs.

neural progenitor cells = experiment: Calcium imaging (fluo-4/am) of Ca2+i responses in 1-2 day cultures
Protocol: Neuronal cultures were prepared from E16 mice and maintained as earlier described (Nedergaard, M., Science 263:1768-1771 (1994), which is hereby incorporated by reference in its entirety). Cytosine arabinoside (20 μM) was added at 48 hr to eliminate proliferating cells. Neural progenitor cells were isolated from E13 mice as previously described (Morshead et al., Neuron 13:1071-82 (1994); Reynolds et al., Science 255:1707-10 (1992), which are hereby incorporated by reference in their entirety). The forebrains were collected in a Ca/Mg-free Hank's buffered saline solution (HBSS) and dissociated in 0.25% trypsin. The cells were resuspended at 4×10^6 cells/ml in DMEM/F12/N2 containing 10 ng/ml bFGF and 10 ng/ml EGF (Sigma, St. Louis, Mo.). The cells were plated at 4 ml/dish into 100 mm suspension culture plates and incubated at 37° C. in 5% CO2. The cells were passaged 2 to 3 times before use.
To test the idea that purinergic signaling is restricted to undifferentiated neural precursor cells, Ca^2+ responses to ATP were first examined as a function of time after plating either neural stem cells or differentiated neurons. Cultured mouse cortical neurons in near-pure neuronal cultures were loaded with fluo-4/am and exposed to either ATP (100 μM) or K^+ (60 mM). […] The responses to ATP fell by day 3 and were absent 9 days after plating. […] By 30 hours after plating, MAP2-defined neurons expressed substantially less P2Y receptor-immunoreactivity than did neighboring, MAP2^− cells (FIG. 1C). By 5 days, P2Y-immunoreactivity was restricted to GFAP^+ astrocytes.
ATP-induced Ca^2+i increments were inhibited by both suramin (100 μM) and reactive blue (RB; 30 μM), two mechanistically-unrelated inhibitors of purinergic signaling (FIG. 1D).

neural spheres = experiment: Lineage potential by clonal expansion and immunostaining; conditions: 5 day exposure, then 7 days without inhibitors
Protocol: Cultures were stained for nestin (monoclonal clone Rat 401, IgG1, or rabbit antiserum, Chemicon, Temecula, Calif.; 1:2000), neuronal class III β-tubulin (monoclonal clone TuJ1, IgG2a, Covance, Philadelphia, Pa.; 1:500), MAP-2 (2a+2b) (monoclonal clone AP-20, ascites fluid, Sigma, St. Louis, Mo.; 1:500), Neuronal protein HuC/HuD (monoclonal 16A11, Molecular Probes, Eugene, Oreg.; 15 μg/ml), O4 (monoclonal IgM supernatant; O4 hybridoma, or GFAP (mouse clone GA5, or rabbit antiserum, Sigma; 1:500,), purinergic receptors P2Y1, P2Y2, P2Y4 (polyclonal, Alomone Labs, Jerusalem, Israel, 1:200), p27 (polyclonal, Chemicon, 1:2000), cyclins D1 and E (polyclonal, H-295 and M-20, respectively, Santa Cruz Biotechnology, Santa Cruz, Calif.; 1:100), Secondary antibodies were FITC-conjugated goat anti-mouse IgM (μ-chain specific, Sigma; 1:500), Cy3-conjugated goat-anti-rabbit IgG (H+ L) (1:200), Cy5-conjugated Goat-anti-mouse IgG (H+L) (both from Jackson ImmunoResearch, West Grove, Pa.; 1:100). Nuclei were counter-stained with Sytox Green or propidium iodide (Molecular Probes). P27, cyclin D and cyclin E FACS analyses were performed on an EPICS ELITE ESP flow cytometer/cell sorter (Beckman Coulter), as described (Deptala et al., Int J Oncol 15:861-71 (1999), which is hereby incorporated by reference in its entirety). […]

neural progenitors = experiment: Limiting dilution analysis of dissociated neurospheres; conditions: for minimum density at which cells remain viable and expand: low density cultures
Protocol: as §1
To assess the requirement of P2Y signaling in self-renewal, neurospheres were dissociated to low density cultures and limiting dilution analysis performed, in the presence or absence of either suramin or RB. […] Thus, purinergic receptor activation was required not only for continued proliferation of neural progenitors, but also for survival at low plating densities.

SMILES	proliferation (BrdU incorporation) (neural stem cells)	P27 expression (neurospheres)	fraction of cells in S-phase (neurospheres) [%]	inhibition of ATP-induced Ca2+i increments (neural progenitor cells; reactive blue 30 μM)	lineage potential of exposed progenitor cells (neural spheres)	minimum density at which cells remain viable and expand (neural progenitors)	survival at low plating densities (neural progenitors)	inhibition of ATP-induced Ca2+i increments (neural progenitor cells; suramin 100 μM)
Nc1c(S(=O)(=O)O)cc(Nc2ccc(Nc3nc(Cl)nc(Nc4cccc(S(=O)(=O)O)c4)n3)c(S(=O)(=O)O)c2)c2c1C(=O)c1ccccc1C2=O [RB, reactive blue 2]	inhibited proliferation in a dose-dependent manner	rose more strongly	5.7±0.3	inhibited	neither suramin nor RB restricted the lineage potential	increased the minimum density	died by 5 days in vitro	–
Cc1ccc(C(=O)Nc2ccc(S(=O)(=O)O)c3cc(S(=O)(=O)O)cc(S(=O)(=O)O)c23)cc1NC(=O)c1cccc(NC(=O)Nc2cccc(C(=O)Nc3cc(C(=O)Nc4ccc(S(=O)(=O)O)c5cc(S(=O)(=O)O)cc(S(=O)(=O)O)c45)ccc3C)c2)c1 [suramin]	inhibited proliferation in a dose-dependent manner	increase in the tumor suppressor P27	8.4±2.3	–	neither suramin nor RB restricted the lineage potential	increased the minimum density	died by 5 days in vitro	inhibited

Reference: patent publication US7829332B2, “Purines are self-renewal signals for neural stem cells, and purine receptor antagonists promote neuronal and glial differentiation therefrom” (Cornell Research Foundation, Inc., priority 2004, dated 2010)
